According to patent US7456201B2, “Pharmaceutically active compounds and methods of use” (Laboratoires Serono SA, priority 2000, dated 2008):

System: untransfected CHO parental cells
Experiment: CHO parental cells assay (intracellular cAMP, RIA)
Type: cell-based, Chinese Hamster
Conditions: tested on untransfected CHO parental cells
Description: Briefly CHO parental cells were plated in 96 well packard view plates 5×10^4 cells/well in serum containing media. […] The wells were washed with serum free assay medium (containing 0.1 mM MIX) and pre-incubated for 15 minutes in this medium. Compound 1 and forskolin (positive control) were added and the cells were incubated for an additional one hour. The cells were lysed and intracellular cAMP was measured using the Amersham direct one step cAMP-RIA kit according to the manufacturers directions.

CC(C)(C)c1ccc(-n2nc(-c3cccnc3)cc2CCCCC(=O)NC(Cc2ccc(O)cc2)C(N)=O)cc1 (stereo not shown) [Compound 1-B, N-(5-[1-(4-tert-butylphenyl)-3-pyridin-3-yl-1H-pyrazol-5-yl]pentanoyl)tyrosinamide]
hFSHR specificity: hFSHR specific
